Results on nine compounds are retold here after patent US7667048B2, “Green and orange fluorescent labels and their uses” (Aries Associates, Inc., priority 2002, dated 2010).

The data set can be described thus: Fluorescence excitation and emission spectra. In kind it is physicochemical. The procedure: Fluorescence excitation and emission spectra were measured either using Hitachi F-4500 Fluorescence Spectrophotometer in ratio mode with a rhodamine B quantum counter. For fluorescence polarization experiments, two different detection instruments were used, a BMG Polarstar and an LJL Analyst. Molecular brightness measurements in 96-well and 384-well microtiter plates were performed in the following four instruments: (1) the LJL analyst, (2) the Tecan Ultra, (3) the PerSeptive and, (4) Chromagen's own photon counting instrument as described in U.S. patent application Ser. No. 09/552/803 and its continuation in part.

Take `CN(C)S(=O)(=O)c1cc(O)c2ccc3c(S(=O)(=O)N(C)CCCN=C=S)cc(S(=O)(=O)N(C)C)c4ccc1c2c43` [compound 16]: under “MeOH/H2O”, the “fluorescence λ em” value was determined as 548 nm and the “fluorescence λ ex” value worked out at 490 nm.

As to “1-Hydroxy-3,6-dimethylsulfonamido-8-sulfonate-pyrene [compound 14]”, under “MeOH/H2O”, the “fluorescence λ em” value is listed as 545 nm and the “fluorescence λ ex” value was determined as 490 nm.

For `NCCCC(=O)c1cc(O)c2ccc3c(S(=O)(=O)O)cc(S(=O)(=O)O)c4ccc1c2c34` [compound 7, 3-Hydroxy, 6,8-disulfonate-aminoethylacetyl-pyrene], for the setting “MeOH/H2O”, the “fluorescence λ em” value is 502 nm and the “fluorescence λ ex” value was 450 nm.

Consider `CN(C)S(=O)(=O)c1cc(O)c2ccc3c(S(=O)(=O)N(C)CCCN)cc(S(=O)(=O)N(C)C)c4ccc1c2c43` [compound 15, 1-Hydroxy-3,6-di-(dimethylsulfonamido)-8-(3-aminopropyl-methyl-sulfonamido)-pyrene], for which, where the note is “MeOH/H2O”, the “fluorescence λ em” value stood at 548 nm and the “fluorescence λ ex” value is given as 490 nm.

In the case of `CN(C)S(=O)(=O)c1cc(O)c2ccc3c(S(=O)(=O)Nc4ccc(CCCC(=O)ON5C(=O)CCC5=O)cc4)cc(S(=O)(=O)N(C)C)c4ccc1c2c34` [compound 17, 1-Hydroxy-3,6-di(dimethylsulfonamido)-8-(4′-succinimidylbutyrate)-phenylsulfonamido-pyrene], for the setting “DMSO/Phosphate buffer”, the “fluorescence λ em” value came to 553 nm and the “fluorescence λ ex” value was determined as 510 nm.

On to `COC(=O)CCC(=O)Nc1cc(O)c2ccc3c(S(=O)(=O)O)cc(S(=O)(=O)O)c4ccc1c2c34` [compound 4, 3-Hydroxy-6,8-disulfonate-methylsuccinylamino-pyrene], for which, under “H2O”, the “fluorescence λ em” value stood at 492 nm and the “fluorescence λ ex” value came to 450 nm.

Regarding “3-Hydroxy-6,8-disulfonate-(4′-succinylamino-6′-isothiocyanyl-hexyl)-pyrene [compound 6]”, for the setting “H2O”, the “fluorescence λ em” value was found to be 503 nm and the “fluorescence λ ex” value came to 450 nm.

For “3-Hydroxy-6,8-disulfonate-(4′-succinyl-6′-aminohexyl)-pyrene [compound 5]”, where the note is “H2O”, the “fluorescence λ em” value stood at 505 nm and the “fluorescence λ ex” value is given as 450 nm.

For `Nc1cc(O)c2ccc3c(S(=O)(=O)O)cc(S(=O)(=O)O)c4ccc1c2c43` [compound 3, 1-Amino-3-hydroxy-6,8-disulfonate-pyrene], for the setting “H2O”, the “fluorescence λ em” value turned out to be 492 nm and the “fluorescence λ ex” value was 450 nm.
